In data set [1] the test system is Hepatocyte. The data set can be described thus: Covalent binding in rat hepatocytes at 10 uM after 1 hr. The class given is ADME, cell-based.
Data set [2] concerns Liver microsomes. Put plainly: Covalent binding in human liver microsomes after 60 mins assessed as GSH adduct formation. The class given is ADME, Microsome. The note with it: 1 h. A general note: Liver microsomes are vesicles of endoplasmic reticulum, rich in cytochrome P450 enzymes.
Data set [3] deals with Hepatocyte. The data set can be described thus: Covalent binding in human hepatocytes at 10 uM after 1 hr. The class given is ADME, cell-based.
Data set [4] has as its system Liver microsomes. The data set can be described thus: Covalent binding in rat liver microsomes after 60 mins assessed as GSH adduct formation. The note with it: 1 h. The class given is ADME, Microsome.
For data set [5], the system named is Liver microsomes. The data set can be described thus: Covalent binding in human liver microsomes at 10 uM after 1 hr. The class given is ADME, Microsome.
For data set [6], the system named is Liver microsomes. Put plainly: Covalent binding in rat liver microsomes at 10 uM after 1 hr. The class given is ADME, Microsome.

With `CC(=O)c1cc(F)cc2c3c(n(Cc4ccc(Cl)cc4)c12)[C@@H](CC(=O)O)CC3`, the Activity amounted to 45 pmol/mg with Hepatocyte [1]; 15% in the data set with Liver microsomes [2]; 16 pmol/mg in the data set on Hepatocyte [3]; 41% in the data set with Liver microsomes [4]; 46 pmol/mg in the data set on Liver microsomes [5]; 290 pmol/mg with Liver microsomes [6].
With `CC(=O)c1cc(S(C)(=O)=O)cc2c3c(n(Cc4ccc(Cl)cc4)c12)[C@@H](CC(=O)O)CC3`, the Activity in the data set on Hepatocyte [1] is 8 pmol/mg; with Liver microsomes [2] it was below 0.5%; in the data set with Hepatocyte [3], 5 pmol/mg; in the data set on Liver microsomes [4], below 0.5%; in the data set on Liver microsomes [5], 18 pmol/mg; in the data set with Liver microsomes [6], 23 pmol/mg.
In the case of `O=C(O)C[C@H]1CCc2c1n(Cc1ccc(Cl)cc1)c1c(Br)cc(F)cc21`, the Activity in the data set on Hepatocyte [1] turned out to be 74 pmol/mg; in the data set on Liver microsomes [2], 5%; in the data set with Hepatocyte [3], 33 pmol/mg; with Liver microsomes [4], 22%; with Liver microsomes [5] it was 33 pmol/mg; with Liver microsomes [6], 460 pmol/mg.

These data come from ChEMBL document CHEMBL1147974, “Metabolic activation of indole-containing prostaglandin D2 receptor 1 antagonists: impacts of glutathione trapping and glucuronide conjugation on covalent binding” (Bioorg Med Chem Lett, 2007).
